Columns and labels:
[1] = biological target: T1, rePON1 (PON1, paraoxonase 1) (Homo sapiens, UniProt P27169); experiment: Prevention of inhibition of PON1 activity by oxidized linolenic acid (TBBL substrate); format: biochemical; conditions: for activity at 30 µM: 30 μM compound with rePON1 30 min, then oxidized linolenic acid 2 h, TBBL substrate, normal control 100, negative control 73.64; for extent to which inhibition of rePON1 activity was prevented, compared with glabridin: compound 30 μM vs glabridin 30 μM; for extent to which inhibition of rePON1 activity was prevented, compared with glabridin / inhibition of rePON1 activity by oxidized linolenic acid: result in words; for inhibition of rePON1 activity by oxidized linolenic acid: compound 30 μM
T1 construct: purchased Thermo Corp. RP-75678
T1 sequence (P27169 whole entry): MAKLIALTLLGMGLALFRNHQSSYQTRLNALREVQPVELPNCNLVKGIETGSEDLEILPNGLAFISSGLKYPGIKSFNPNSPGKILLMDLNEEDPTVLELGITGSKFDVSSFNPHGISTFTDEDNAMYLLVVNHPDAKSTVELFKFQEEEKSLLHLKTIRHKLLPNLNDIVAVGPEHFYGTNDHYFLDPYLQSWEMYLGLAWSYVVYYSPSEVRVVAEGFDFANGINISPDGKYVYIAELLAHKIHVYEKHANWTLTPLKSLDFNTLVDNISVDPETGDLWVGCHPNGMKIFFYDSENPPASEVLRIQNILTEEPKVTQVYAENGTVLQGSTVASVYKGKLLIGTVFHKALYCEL
Experimental: Based on the fact that the activity of PON1 is inhibited when PON1 is treated with oxidized linolenic acid, an experiment was conducted to confirm the prevention of inhibition of PON1 activity. The activity of PON1 was measured using TBBL (5-thiobutyl butyrolactones) as a substrate.
Specifically, after 9.6 μl of 50 mM Tris-HCl containing 1 mM CaCl2 was added to each of […] Eppendorf tubes, 0.2 μl of each of the compounds of Formulas III-1, IV-1, V-1, IV-2, V-2, II-1, IV-3, V-3, III-2, IV-4, V-4, II-2 and III-3 and glabridine was added to each tube so that the concentration thereof was 30 μM. 0.2 μl of rePON1 (RP-75678, Thermo Corp.) was added to each of the 12 tubes and mixed. Thereafter, each of the mixtures was allowed to react at room temperature for 30 minutes, and 0.5 μl of 1 mM oxidized linolenic acid (OX-LA) dissolved in DMSO was added thereto in order to inhibit rePON1 activity, followed by reaction at room temperature for 2 hours, thus preparing solutions (I).
25 μl of 0.5 mM DTNB dissolved in 50 mM Tris-HCl containing 1 mM CaCl2 was dispensed into each well of a 384-well plate, and then 10 μl of each of the solutions (I) was dispensed into each well, and 20 μl of 2 mM TBBL dissolved in 50 mM Tris-HCl containing 1 mM CaCl2 was added to each well, thus preparing samples. The absorbance of each of the samples at 420 nm was measured using a spectrometer (SpectraMax M2) at 37° C. every 2 minutes for 1 hour.
In addition, a negative control was prepared in the same manner as the above-described method, except that, for the preparation of a solution, 0.2 μl of DMSO was added instead of the compounds of Formulas III-1, IV-1, V-1, IV-2, V-2, II-1, IV-3, V-3, III-2, IV-4, V-4, II-2 and III-3 and glabridin. Furthermore, a normal control was prepared in the same manner as the above-described method, except that, for the preparation of a solution, 0.2 μl of DMSO was added instead of the above-described compounds and glabridin and that oxidized linolenic acid was not added. The absorbance of each of the negative control and the normal control was measured.
Using SoftMax Pro software, the activity of PON1 was calculated from the absorbance using the following Equation 1, and the results are shown in Table 1 below.
Activity=(absorbancesample−absorbanceblank)/(absorbancePON1−absorbanceblank)*100 [Equation 1]

BV2 cells [2] = experiment: iNOS and COX-2 expression after LPS (Western blot); format: cell-based; conditions: 3 h pretreatment (Table 3 amounts), LPS 1 μg/ml 24 h
Experimental: (§1) RAW264.7 cells or BV2 cells (5×10^5 cells/well) were dispensed in DMEM containing 10% heat-inactivated FBS, 10 IU/mL penicillin G, 100 μg/mL streptomycin and 2 mM L-glutamine and cultured in a 5% CO2 incubator at a temperature of 37° C.
(§2) The compound of Formula III-3, III-4, V-3, III-1, IV-1, V-1, IV-2, V-2 or II-2 was added to the RAW264.7 cells or BV2 cells, and the toxicities of the compounds were determined by MTT assay.
(§3) The pretreated cells of Experimental Example 4-1 were treated with 1 μg/ml of LPS for 24 hours, and then the expression levels of iNOS and COX-2 were observed through Western blot, and the production of NO and PGE2 was measured.

RAW264.7 cells [3] = experiment: iNOS and COX-2 expression after LPS (Western blot); format: cell-based; conditions: 3 h pretreatment (Table 3 amounts), LPS 1 μg/ml 24 h
Experimental: as §1, §2, §3

BV2 cells [4] = experiment: NO and PGE2 production after LPS; format: cell-based; conditions: 3 h pretreatment (Table 3 amounts), LPS 1 μg/ml 24 h
Experimental: as §1, §2, §3

RAW264.7 cells [5] = experiment: NO and PGE2 production after LPS; format: cell-based; conditions: 3 h pretreatment (Table 3 amounts), LPS 1 μg/ml 24 h
Experimental: as §1, §2, §3

BV2 cells [6] = experiment: IL-1β, IL-6 and TNF-α mRNA expression after LPS (RT-PCR); format: cell-based; conditions: 3 h pretreatment (Table 3 amounts), LPS 1 μg/ml 6 h
Experimental: as §1, §2
(§4) The pretreated cells of Experimental Example 4-1 were treated with 1 μg/ml of LPS for 6 hours, and then the mRNA expression level of the cytokine IL-1β, IL-6 or TNF-α produced in the inflammatory response was analyzed using RT-PCR.

RAW264.7 cells [7] = experiment: as above; format: cell-based; conditions: 3 h pretreatment (Table 3 amounts), LPS 1 μg/ml 6 h
Experimental: as §1, §2, §4

RAW264.7 cells [8] = experiment: Transcription of NF-κB protein (p65, p50) into nucleus after LPS (Western blot); format: cell-based; conditions: 3 h pretreatment (Table 3 amounts), LPS 1 μg/ml 1 h
Experimental: RAW264.7 cells or BV2 cells (5×10^5 cells/well) were dispensed in DMEM containing 10% heat-inactivated FBS, 10 IU/mL penicillin G, 100 μg/mL streptomycin and 2 mM L-glutamine and cultured in a 5% CO2 incubator at a temperature of 37° C. […]
(§5) The pretreated cells of Experimental Example 4-1 were treated with 1 μg/ml of LPS for 1 hour, and then the level of transcription of NF-κB protein into the nucleus of each of p65 and p50 was analyzed through Western blot.

BV2 cells [9] = experiment: as above; format: cell-based; conditions: 3 h pretreatment (Table 3 amounts), LPS 1 μg/ml 1 h
Experimental: as §1, §2, §5

Row | Structure (SMILES) | activity at 30 µM [1] | extent to which inhibition of rePON1 activity was prevented, compared with glabridin [1] | inhibition of rePON1 activity by oxidized linolenic acid [1] | expression level of COX-2 (BV2 cells [2]) | expression level of iNOS (BV2 cells [2]) | expression level of COX-2 (RAW264.7 cells [3]) | expression level of iNOS (RAW264.7 cells [3]) | production of NO (BV2 cells [4]) | production of PGE2 (BV2 cells [4]) | production of NO (RAW264.7 cells [5]) | production of PGE2 (RAW264.7 cells [5]) | mRNA expression level of IL-1β (BV2 cells [6]) | mRNA expression level of IL-6 (BV2 cells [6]) | mRNA expression level of TNF-α (BV2 cells [6]) | mRNA expression level of IL-1β (RAW264.7 cells [7]) | mRNA expression level of IL-6 (RAW264.7 cells [7]) | mRNA expression level of TNF-α (RAW264.7 cells [7]) | level of transcription of NF-κB protein into the nucleus, p50 (RAW264.7 cells [8]) | level of transcription of NF-κB protein into the nucleus, p65 (RAW264.7 cells [8]) | level of transcription of NF-κB protein into the nucleus, p50 (BV2 cells [9]) | other results
1 | CCOc1ccc([C@H]2COc3c(ccc4c3CCC(C)(C)O4)C2)c(O)c1 [Formula V-1, (S)-2-(8,8-dimethyl-2,3,4,8,9,10-hexahydropyrano[2,3-f]chromen-3-yl)-5-ethoxyphenol] | 80.7% | greater | prevented | concentration-dependently decreased | concentration-dependently decreased | concentration-dependently decreased | concentration-dependently decreased | concentration-dependently decreased | concentration-dependently decreased | concentration-dependently decreased | concentration-dependently decreased | concentration-dependently decreased | concentration-dependently decreased | concentration-dependently decreased | concentration-dependently decreased | concentration-dependently decreased | concentration-dependently decreased | concentration-dependently decreased | concentration-dependently decreased | concentration-dependently decreased | level of transcription of NF-κB protein into the nucleus, p65 (BV2 cells [9]): concentration-dependently decreased
2 | CCCOc1ccc([C@H]2COc3c(ccc4c3CCC(C)(C)O4)C2)c(O)c1 [Formula V-2, (S)-2-(8,8-dimethyl-2,3,4,8,9,10-hexahydropyrano[2,3-f]chromen-3-yl)-5-propoxyphenol] | 89.4% | greater | prevented | concentration-dependently decreased | concentration-dependently decreased | concentration-dependently decreased | concentration-dependently decreased | concentration-dependently decreased | concentration-dependently decreased | concentration-dependently decreased | concentration-dependently decreased | concentration-dependently decreased | concentration-dependently decreased | concentration-dependently decreased | concentration-dependently decreased | concentration-dependently decreased | concentration-dependently decreased | concentration-dependently decreased | concentration-dependently decreased | concentration-dependently decreased | level of transcription of NF-κB protein into the nucleus, p65 (BV2 cells [9]): concentration-dependently decreased

— patent US20220257557A1, “PHARMACEUTICAL COMPOSITION FOR PREVENTING OR TREATING NEUROLOGICAL DISEASES” (GLACEUM INC., priority 2019, published 2022)
